Measurements as given in patent publication US9250232B2, “Fluorescent probe” (THE UNIVERSITY OF TOKYO, priority 2012, dated 2016).
Each block holds one compound with its values, some of them ahead of it.

How the values were obtained:
[1] = Optical characteristics (absorption and fluorescence maxima, quantum yield) in 0.1 M phosphate buffer with 1% DMSO; assay type: physicochemical; conditions: for λmax,fl (nm) / Φfl (fluorescence quantum yield): 0.1 M phosphate buffer (pH 9); for Φfl (fluorescence quantum yield): standard 2-Me TM (0.42); for λmax,abs (nm) pH 9: pH 9, 0.1 M phosphate buffer
Procedure: (§1) The measurement was performed in a 0.1 M phosphate buffer (pH 9) containing 1% dimethyl sulfoxide (DMSO). pKa was obtained from the absorbance meaured in a phosphate buffer (pH 9) by single-phase or two-phase curve fitting.

[2] = pKa from absorbance in phosphate buffer by single-phase or two-phase curve fitting; conditions: single value given
Procedure: as §1

[3] = 2-Me TokyoMagenta in 0.1 M phosphate buffer (pH 9); compound of WO2012/099218; cited from earlier work
[4] = Optical characteristics of diCl-2-COOH TM-monoβGal in 0.1 M phosphate buffer; assay type: physicochemical
Procedure: The quantum yield was calculated by using the quantum yield (0.85) of fluorescein in 0.1M aqueous sodium hydroxide as the standard.

HEK293 cells = assay: Imaging of β-galactosidase in live HEK293 cells (lacZ+ / lacZ−), intracellular uptake; assay type: cell-based; conditions: 10 μM, 37° C., 30 minutes, DMEM with 0.1% DMSO, confocal microscope
Procedure: For the HEK293 cells in which the lacZ gene encoding β-galactosidase was stably expressed (lacZ+), and the HEK293 cells into which the lacZ gene was not introduced (lacZ−) as a control, β-galactosidase in the cells was measured by using diCl-2-COOH TM-monoβGal or diCl-2-COOH TM-diβGal. The HEK293 cells (lacZ−) were incubated at 37° C. for 30 minutes in the Dulbecco's Modified Eagle's medium (DMEM) containing 0.1% DMSO together with 10 μM diCl-2-COOH TM-monoβGal or diCl-2-COOH TM-diβGal. […] The results are shown in FIG. 19 (diCl-2-COOH TM-monoβGal) and FIG. 20 (diCl-2COOHTM-diβGal).

[5] = Estimate of open-ring ratio by comparison with the absorption spectrum of TM-βGal; assay type: physicochemical; conditions: pH of physiological conditions; 10 μM in 0.1 M sodium phosphate buffer, 1.0% DMSO; versus TM-βGal
Procedure: In order to estimate the open-ring ratio of diCl-2-COOH TM-monoβGal, comparison with the absorption spectrum of TM-βGal was performed. […] The measurement was performed by using 10 μM diCl-2-COOH TM-monoβGal in a 0.1 M sodium phosphate buffer of various pH values containing 1.0% DMSO. The excitation wavelength was 450 nm for TMβGal (compound described in International Patent Publication WO2012/099218), or 460 nm for diCl-2-COOH TM-monoβGal.

Procedure for physchem: as §1

λmax,fl (nm) [1]: 607 nm
Φfl (fluorescence quantum yield) [1]: 0.48
λmax,abs (nm) pH 9 [1]: 591 nm
Compound: C[Si]1(C)C2=C(Cl)C(=O)C=CC2=C(c2ccccc2C(=O)O)c2ccc(O)c(Cl)c21 [2-COOH DCTM, 4′,5′-Dichloro-2-COOH TokyoMagenta]

Compound: C[Si]1(C)C2=CC(=O)C=CC2=C(c2ccccc2C(=O)O)c2ccc(O)cc21 [2-COOH TM]
λmax,fl (nm) [1]: 598 nm
Φfl (fluorescence quantum yield) [1]: 0.38
λmax,abs (nm) pH 9 [1]: 582 nm
pKa (physchem; pKa (first of two printed values)): 8.3
pKa (physchem; pKa (second of two printed values)): 7.6

Compound: Cc1ccccc1C1=C2C=CC(=O)C=C2[Si](C)(C)c2cc(O)ccc21 [2-Me TM, 2-Me TokyoMagenta]
λmax,fl (nm) [1]: 598 nm
λmax,abs (nm) pH 3 ([1]; pH 3, 0.1 M phosphate buffer): 472 nm
λmax,abs (nm) pH 9 [1]: 582 nm
pKa [2]: 6.8
Φfl (quantum yield used as the standard) [3]: 0.42

Absorption λmax [nm] [4]: 460 nm
Fluorescence λmax [nm] [4]: 555 nm
Extinction Coefficient ε [M^−1cm^−1] ([4]; pH 7.4): 1,200 (pH 7.4) M^−1cm^−1
Quantum yield Φfl ([4]; pH 7.4, standard fluorescein (0.85)): 0.09 (pH 7.4)
Part having the ring-closed structure, which does not show absorption [5]: more than 95%
Compound: C[Si]1(C)C2=C(Cl)C(=O)C=CC2=C(c2ccccc2C(=O)O)c2ccc(O[C@@H]3O[C@H](CO)[C@H](O)[C@H](O)[C@H]3O)c(Cl)c21 [diCl-2-COOH TM-monoβGal, 4′,5′-Dichloro-2-COOH TokyoMagenta mono-β-D-galactopyranoside]
Intracellular uptaking amount compared with diCl-2-COOH TM-diβGal (HEK293 cells): larger
